We go through 32 compounds from patent US9422296B2, “Fast-dissociating dopamine 2 receptor antagonists” (Janssen Pharmaceutica NV, priority 2007, dated 2016).

Where a name gives a salt, the structure may show the parent alone. Read-outs that look alike come from different tables or passages of the source.

For series [1], the target named is T1, human Dopamine D2L receptor (Homo sapiens, UniProt P14416).
T1 construct: expressed in transfected cells; host or cells: CHO cells (membranes)
The experiment in a line: In vitro binding affinity for human D2L receptor ([3H]spiperone). The conditions noted are these: membranes of human D2L receptor-transfected CHO cells, read-out: D2L binding pIC50 (converted). From the text:
In order to find antipsychotic compounds active against positive and negative symptoms and cognitive impairment, and having an improved safety profile (low EPS incidence and no metabolic disorders), we have screened for compounds selectively interacting with the dopamine D2 receptor and dissociating fast from this receptor, and further having affinity for the dopamine D3 receptor as well as the serotonin 5-HT-6 receptor. Compounds were first screened for their D2 affinity in a binding assay using [^3H]spiperone and human D2L receptor cell membranes.
Pharmacology In Vitro Binding Affinity for Human D2L Receptor
Frozen membranes of human Dopamine D2L receptor-transfected CHO cells were thawed, briefly homogenised using an Ultra-Turrax T25 homogeniser and diluted in Tris-HCl assay buffer containing NaCl, CaCl2, MgCl2, KCl (50, 120, 2, 1, and 5 mM respectively, adjusted to pH 7.7 with HCl) to an appropriate protein concentration optimised for specific and non-specific binding. Radioligand [^3H]Spiperone (NEN, specific activity ˜70 Ci/mmol) was diluted in assay buffer at a concentration of 2 nmol/L. Prepared radioligand (50 μl), along with 50 μl of either the 10% DMSO control, Butaclamol (10^−6 mol/1 final concentration), or compound of interest, was then incubated (30 min, 37° C.) with 400 μl of the prepared membrane solution. Membrane-bound activity was filtered through a Packard Filtermate harvester onto GF/B Unifilterplates and washed with ice-cold Tris-HCl buffer (50 mM; pH 7.7; 6×0.5 ml). Filters were allowed to dry before adding scintillation fluid and counting in a Topcount scintillation counter. Percentage specific bound and competition binding curves were calculated using S-Plus software (Insightful).

Series [2] has as its target T2, human Serotonin 5HT6 receptor (Homo sapiens, UniProt P50406).
T2 construct: expressed in transfected cells; host or cells: HEK cells (membranes)
The experiment in a line: In vitro binding affinity for human 5HT6 receptor ([3H]lysergic acid diethylamide). The conditions noted are these: [3H]LSD, membranes of human 5HT6 receptor-transfected HEK cells; for IC50: read-out: 5-HT6 binding pIC50 (converted). How it is done:
In Vitro Binding Affinity for Human 5HT6 Receptor
Frozen membranes of human Serotonin 5HT6 receptor-transfected HEK cells were thawed, briefly homogenized using an Ultra-Turrax T25 homogeniser and diluted in 50 mM Tris-HCl assay buffer containing 10 mM MgCl2, 1 mM EDTA and 10 μM Pargyline (adjusted to pH 7.4 with HCl) to an appropriate protein concentration optimized for specific and non-specific binding. Radioligand [^3H]Lysergic acid diethylamide (Perkin Elmer, specific activity ˜80 Ci/mmol) was diluted in assay buffer at a concentration of 20 nM. Radioligand (20 μl), along with 40 μl of either the 10% DMSO control, Methiothepine (10^−5 M final concentration), or compound of interest, was then incubated with 70 μl of the prepared membrane solution and 70 μl of WGA coated PVT beads (0.25 mg/well final concentration). After shaking for 24 hours at RT plates were counted in a Topcount™ scintillation counter. Percentage specific binding and competition binding curves were calculated using S-Plus software (Insightful).

Series [3] deals with T3, human Dopamine D3 receptor (Homo sapiens, UniProt P35462).
T3 construct: expressed in transfected cells; host or cells: CHO cells (membranes)
T3 sequence (P35462 whole entry): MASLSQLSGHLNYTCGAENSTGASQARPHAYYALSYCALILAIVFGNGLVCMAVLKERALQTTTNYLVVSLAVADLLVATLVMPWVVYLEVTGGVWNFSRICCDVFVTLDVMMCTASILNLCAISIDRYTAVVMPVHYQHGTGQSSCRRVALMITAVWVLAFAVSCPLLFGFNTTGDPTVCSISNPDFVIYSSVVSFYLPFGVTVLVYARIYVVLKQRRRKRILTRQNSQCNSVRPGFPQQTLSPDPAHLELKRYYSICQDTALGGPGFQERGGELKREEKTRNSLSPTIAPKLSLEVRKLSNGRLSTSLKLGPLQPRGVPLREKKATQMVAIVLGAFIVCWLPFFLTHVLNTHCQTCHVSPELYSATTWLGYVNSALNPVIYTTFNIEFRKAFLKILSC
Description: In vitro binding affinity for human D3 receptor ([125I]iodosulpride). How it is done: In Vitro Binding Affinity for Human D3 Receptor
Frozen membranes of human Dopamine D3 receptor-transfected CHO cells were thawed, briefly homogenized using an Ultra-Turrax T25 homogeniser and diluted in 50 mM Tris-HCl assay buffer containing 120 mM NaCl, 2 mM CaCl2, 1 mM MgCl2, 5 mM KCl and 0.1% BSA (adjusted to pH 7.4 with HCl) to an appropriate protein concentration optimized for specific and non-specific binding. Radioligand [^125I]Iodosulpride (Amersham, specific activity ˜2000 Ci/mmol) was diluted in assay buffer at a concentration of 2 nM. Prepared radioligand (20 μl), along with 40 μl of either the 10% DMSO control, Risperidone (10^−6M final concentration), or compound of interest, was then incubated with 70 μl of the prepared membrane solution and 70 μl of WGA coated PVT beads (0.25 mg/well final concentration). After shaking for 24 hours at RT plates were counted in a Topcount™ scintillation counter. Percentage specific binding and competition binding curves were calculated using S-Plus software (Insightful).

Setting [4] is: [125I]iodosulpride, membranes of human D3 receptor-transfected CHO cells, read-out: D3 binding pIC50 (converted).

T2 sequence (P50406 whole entry): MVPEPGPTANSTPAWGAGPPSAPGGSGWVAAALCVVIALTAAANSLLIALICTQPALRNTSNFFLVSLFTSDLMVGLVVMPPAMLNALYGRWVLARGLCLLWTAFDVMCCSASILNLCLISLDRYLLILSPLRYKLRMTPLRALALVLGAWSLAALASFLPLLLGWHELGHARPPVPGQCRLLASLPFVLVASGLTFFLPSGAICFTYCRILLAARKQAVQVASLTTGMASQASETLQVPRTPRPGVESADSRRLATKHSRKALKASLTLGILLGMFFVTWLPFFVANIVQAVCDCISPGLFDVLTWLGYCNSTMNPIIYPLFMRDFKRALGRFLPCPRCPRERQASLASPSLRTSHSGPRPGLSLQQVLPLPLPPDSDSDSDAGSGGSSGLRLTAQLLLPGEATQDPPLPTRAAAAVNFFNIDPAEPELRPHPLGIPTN
T1 sequence (P14416 whole entry): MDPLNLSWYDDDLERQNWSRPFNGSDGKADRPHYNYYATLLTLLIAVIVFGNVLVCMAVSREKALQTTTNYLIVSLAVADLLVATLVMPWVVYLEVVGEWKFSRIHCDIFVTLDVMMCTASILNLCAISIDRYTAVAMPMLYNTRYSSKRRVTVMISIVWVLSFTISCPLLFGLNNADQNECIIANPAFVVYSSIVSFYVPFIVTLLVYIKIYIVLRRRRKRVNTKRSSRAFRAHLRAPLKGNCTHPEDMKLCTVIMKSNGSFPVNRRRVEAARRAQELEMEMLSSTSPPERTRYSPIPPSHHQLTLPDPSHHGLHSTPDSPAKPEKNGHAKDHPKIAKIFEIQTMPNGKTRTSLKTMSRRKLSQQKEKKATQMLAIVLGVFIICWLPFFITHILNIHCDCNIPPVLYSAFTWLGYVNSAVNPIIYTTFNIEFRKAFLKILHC

The melting point is the temperature of the solid-liquid transition. Regarding `CCN1CCN(c2cc(-c3ccccc3)c(C(F)(F)F)nn2)CC1` (as salt: hydrochloric acid salt) [Example E2, 6-(4-Ethylpiperazin-1-yl)-4-phenyl-3-trifluoromethyl-pyridazine], the melting point is 281.9 °C.

In turn, `C[C@@H]1CN(c2cc(-c3ccccc3)c(C(F)(F)F)nn2)C[C@H](C)N1` (as salt: hydrochloric acid salt) [Example E4, cis-6-(3,5-Dimethylpiperazin-1-yl)-4-phenyl-3-trifluoromethyl-pyridazine] came in with a melting point of 285.4 °C.

In the case of `FC(F)(F)c1nnc(N2CCNCC2)cc1-c1cccc2ccccc12` (as salt: hydrochloric acid salt) [Example E18], the melting point was 281.8 °C.

The compound `CN1CCN(c2cc(-c3ccccc3)c(C(F)(F)F)nn2)CC1` (as salt: hydrochloric acid salt) [Example E22] registered a melting point of 163.3 °C.

For `COc1ccccc1-c1cc(N2CCNCC2)nnc1C(F)(F)F` (as salt: hydrochloric acid salt) [Example E31], the melting point stood at 287.7 °C.

Take `CN(C)c1ccc(-c2cc(N3CCNCC3)nnc2C(F)(F)F)cc1` (as salt: hydrochloric acid salt) [Example E32]: the melting point is 198.7 °C.

`FC(F)(F)c1nnc(N2CCNCC2)cc1-c1cc(Cl)ccc1Cl` (as salt: hydrochloric acid salt) [Example E34] showed a melting point of 286.3 °C.

As to `FC(F)(F)c1nnc(N2CCN3CCCC3C2)cc1-c1ccccc1` (racemic) (as salt: hydrochloric acid salt) [Example E5, 2-(5-Phenyl-6-trifluoromethyl-pyridazin-3-yl)-octahydro-pyrrolo[1,2-a]pyrazine], the melting point amounted to 104.2 °C.

Compound `CC1CN(c2cc(-c3ccccc3)c(C(F)(F)F)nn2)C(C)CN1` (racemic) (as salt: hydrochloric acid salt) [Example E26] returned a melting point of 273 °C.

On to `CC1CN(c2cc(-c3ccccc3)c(C(F)(F)F)nn2)C(C)CN1` (racemic) [Example E26], for which the IC50 in series [1] was 6030 nM; in series [2] it was 2290 nM; in series [3] (setting [4]), above 10000 nM.

`Fc1cc(F)cc(CN2CCN(c3cc(-c4ccccc4)c(C(F)(F)F)nn3)CC2)c1` [Example E3, 6-[4-(3,5-Difluorobenzyl)piperazin-1-yl]-4-phenyl-3-trifluoromethyl-pyridazine] yielded a melting point of 138.8 °C. The IC50 in series [1] is 617 nM. Besides, the “5-HT6 binding pIC50” value in series [2] is above 5. Moreover, the IC50 in series [3] (setting [4]) is above 10000 nM.

As to `C[C@@H]1CN(c2cc(-c3ccccc3)c(C(F)(F)F)nn2)C[C@H](C)N1` [Example E4, cis-6-(3,5-Dimethylpiperazin-1-yl)-4-phenyl-3-trifluoromethyl-pyridazine], the IC50 in series [1] was 3800 nM; in series [2] it was 8510 nM; in series [3] (setting [4]), above 10000 nM.

For `Cc1ccc(-c2cc(N3CCNCC3)nnc2C(F)(F)F)cc1` [Example E11], the melting point was 110.6 °C. Also, in series [1], the IC50 was 1260 nM. For the same compound, the IC50 in series [2] is 741 nM. The IC50 in series [3] (setting [4]) was 89.1 nM.

With `FC(F)(F)c1nnc(N2CCNCC2)cc1-c1ccc(Cl)cc1` [Example E12], the melting point came out at 198.2 °C. Also, the IC50 in series [1] was 3630 nM. Also, the IC50 in series [2] is 1740 nM. Moreover, in series [3] (setting [4]), the IC50 was 347 nM.

Consider `Oc1cccc(-c2cc(N3CCNCC3)nnc2C(F)(F)F)c1` [Example E13], for which the IC50 was 5130 nM in series [1], 3550 nM in series [2] and above 10000 nM in series [3] (setting [4]).

Regarding `FC(F)(F)c1nnc(N2CCNCC2)cc1-c1ccc(Br)cc1` [Example E14], the melting point was found to be 138.2 °C. In addition, the IC50 in series [1] was 4070 nM. The IC50 in series [2] was 4270 nM. The IC50 in series [3] (setting [4]) is above 10000 nM.

`Fc1cccc(-c2cc(N3CCNCC3)nnc2C(F)(F)F)c1` [Example E15] showed a melting point of 144.7 °C. The IC50 in series [1] is 5750 nM. Also, in series [2], the IC50 is 1550 nM. For the same compound, in series [3] (setting [4]), the IC50 is 631 nM.

Compound `FC(F)(F)c1nnc(N2CCNCC2)cc1-c1cccc(Cl)c1` [Example E16] returned a melting point of 178.8 °C. The IC50 in series [1] was 4790 nM. In addition, the IC50 in series [2] is 245 nM. Besides, the IC50 in series [3] (setting [4]) was 550 nM.

`FC(F)(F)c1nnc(N2CCNCC2)cc1-c1ccc2ccccc2c1` [Example E17] displayed a melting point of 128.1 °C. Also, the IC50 in series [1] was 7940 nM. Besides, the IC50 in series [2] is 437 nM. Besides, in series [3] (setting [4]), the IC50 was 398 nM.

With `FC(F)(F)c1nnc(N2CCNCC2)cc1-c1cccc2ccccc12` [Example E18], the IC50 in series [1] is 7760 nM; in series [2], 158 nM; in series [3] (setting [4]) it was above 10000 nM.

Compound `FC(F)(F)c1nnc(N2CCNCC2)cc1-c1cccs1` [Example E19] came in with a melting point of 112.6 °C. Also, the IC50 in series [1] was 1380 nM. In addition, in series [2], the IC50 was 1950 nM. The IC50 in series [3] (setting [4]) is 148 nM.

For `CN1CCN(c2cc(-c3ccccc3)c(C(F)(F)F)nn2)CC1` [Example E22], the IC50 was 776 nM in series [1], 1260 nM in series [2] and 38.9 nM in series [3] (setting [4]).

Turning to `FC(F)(F)c1nnc(N2CCNCC2)cc1-c1ccc(Cl)s1` [Example E27, 4-(5-Chloro-thiophen-2-yl)-6-piperazin-1-yl-3-trifluoromethyl-pyridazine], the IC50 in series [1] is 1510 nM; in series [2], 794 nM; in series [3] (setting [4]), above 10000 nM.

`Cc1cc(F)ccc1-c1cc(N2CCNCC2)nnc1C(F)(F)F` [Example E28]: the results for the IC50 in series [1], in series [2] and in series [3] (setting [4]) were 372 nM, 245 nM and 47.9 nM, respectively.

As for `COc1ccccc1-c1cc(N2CCNCC2)nnc1C(F)(F)F` [Example E31], the IC50 is above 10000 nM in series [1], 1120 nM in series [2] and 479 nM in series [3] (setting [4]).

Turning to `CN(C)c1ccc(-c2cc(N3CCNCC3)nnc2C(F)(F)F)cc1` [Example E32], the IC50 was above 10000 nM in series [1], 977 nM in series [2] and 1290 nM in series [3] (setting [4]).

`Fc1ccccc1-c1cc(N2CCNCC2)nnc1C(F)(F)F` [Example E33]: the IC50 in series [1] is 1230 nM; in series [2], 1290 nM; in series [3] it was 52.5 nM.

As for `FC(F)(F)c1nnc(N2CCNCC2)cc1-c1cc(Cl)ccc1Cl` [Example E34], the results for the IC50 in series [1], in series [2] and in series [3] (setting [4]) were 4680 nM, 794 nM and 87.1 nM, respectively.

Turning to `FC(F)(F)c1nnc(N2CCN(Cc3ccccc3)CC2)cc1-c1ccccc1` [Example E36], the IC50 in series [1] is 33.1 nM; in series [2] it was 6610 nM; in series [3] (setting [4]) it was above 10000 nM.

For the compound `FC(F)(F)c1nnc(N2CCN(Cc3cccnc3)CC2)cc1-c1ccccc1` [Example E37], the IC50 in series [1] is 562 nM; in series [2], above 10000 nM; in series [3] (setting [4]), 178 nM.

Take `FC(F)(F)c1nnc(N2CCN(Cc3ccccn3)CC2)cc1-c1ccccc1` [Example E38]: the IC50 in series [1] was 282 nM; in series [2] it was above 10000 nM; in series [3] (setting [4]) it was 87.1 nM.

Regarding `FC(F)(F)c1nnc(N2CCN(CC3CC3)CC2)cc1-c1ccccc1` [Example E39], the values for the IC50 in series [1], in series [2] and in series [3] (setting [4]) were 60.3 nM, 3890 nM and above 10000 nM, respectively.
